The results in this text go back to patent publication US8609607B2, “Modified defensins and their use” (The United States of America as represented by the …, priority 2002, dated 2013).

The test system of data set [1] is Escherichia coli ATCC43827. Description: radial diffusion assay, antibacterial activity. In kind it is cell-based. Particulars: compared to unmodified HNP-1; 16-256 nM; FIG. 2A. The procedure:
(§1) The antibacterial activity of various concentrations of HNP-1 and ADP-ribosyl-HNP-1 (16 nM, 32 nM, 64 nM, 128 nM, 256 nM) on Escherichia coli ATCC43827 (American Type Culture Collection, Rockville, Md.) was evaluated by the radial diffusion assay (Takemura et al., Antimicrob. Agents Chemother. 40: 2280-2284, 1996). Antimicrobial activity was positively correlated with the diameter of a zone cleared of E. coli growth (minus the diameter of the central well (3 mm)).

Data set [2] concerns A549 cells. Nature of the data set: chromium release assay, defensin cytotoxicity. In kind it is cell-based. Particulars: compared to unmodified HNP-1; 1.5-24 μM, 18 hours, 37° C.; FIG. 2B. As for the experimental part:
(§2) Chromium (^51Cr)-labeled A549 cells (American Type Culture Collection) were incubated (18 hours, 37° C.) in 100 μl of serum-free RPMI (Gibco Fluids Inc., Rockville, Md.) containing various concentrations of HNP-1, synthetic HNP-1, or ADP-ribosyl-HNP-1 (1.5 μM, 3 μM, 6 μM, 12 μM, 24 μM) to quantify defensin cytotoxicity. Cytotoxicity was positively correlated with the amount of chromium released from lysed cells (Panyutich et al., Am. J. Respir. Cell. Mol. Biol. 12:351-357, 1995). Percent of lysis was calculated as (cpmexp−cpmspont)/(cpmmax−cpmspont)×100 (exp, experimental conditions; max, maximal release; spont, spontaneous release).

The next data set deals with E. coli. Description: radial diffusion assay, effect of ADP-ribosylated HNP-1 on HNP-1 activity. In kind it is cell-based. Particulars: HNP-1 100 nM incubated 1 hour at 37° C. with 0-800 nM ADP-ribosylated HNP-1; FIG. 3A. The procedure:
as §1
HNP-1 (100 nM) was incubated for 1 hour at 37° C. with various concentrations of ADP-ribosylated HNP-1 (0-800 nM) before the initiation of the E. coli radial diffusion assay. The radial diffusion assay was performed as described in Example 4.

The test system of a further data set is CD3+ T-cells. Description: T cell chemotaxis assay. The data set is classed as cell-based, human. Particulars: 0.025 to 25 nM, 4 hours; compared to unmodified HNP; FIG. 4C. The procedure: CD3^+ T-cells were isolated from human peripheral blood prepared by leukapheresis (NIH, Department of Transfusion Medicine, Bethesda, Md.) (Chertov et al, J. Biol. Chem. 271:2935-2940, 1996) and suspended in migration medium (RPMI 1640, 0.5% bovine serum albumin, 25 mM HEPES). Inserts coated with collagen IV (Becton Dickinson Labware, Bedford, Mass.) were placed into 24-well culture plates to form upper and a lower chambers in each well. Upper chambers were wetted with migration medium, then 500 μl of migration medium with or without ADP-ribosyl-HNP-1 or HNP-1 (0.025 to 25 nM) were added to the lower chamber. Cells were added to the upper chamber and plates were incubated at 37° C. in 5% CO2 for 4 hours. Cells incubated in the presence or absence of (macrophage inflammatory protein-1β) MIP-1β (5 ng/ml) were the positive and negative controls, respectively. Lymphocytes that had migrated to the lower chamber were harvested by centrifugation and counted in a hematocytometer. Chemotaxis percentage was calculated as follows: (number of cells migrated to the lower chamber in the experimental conditions−number of cells migrated in the negative control)/(number of cells migrated in the positive control−number of cells migrated in negative control)×100.

For data set [3], the system named is A549 cells. Description: IL-8 production by A549 cells (indirect ELISA). Particulars: 12 or 24 hours. The data set is classed as cell-based. As for the experimental part: A549 cells (3×10^4 cells per well) were incubated in a 96-well plate in 200 μl of serum-free RPMI medium (Gibco Fluids Inc) containing ADP-ribosyl-HNP-1 or HNP-1 (0.25, 0.75, 1.5, 3 μM). Culture medium was sampled after 12 or 24 hours of incubation and IL-8 content in the medium was assayed by indirect ELISA (FIGS. 4A and 4B) according to the manufacturer's instructions (R & D System Inc. Minneapolis, Minn.).

For data set [4], the system named is A549 cells. Nature of the data set: chromium release assay, effect of ADP-ribosylated HNP-1 on HNP-1 cytotoxic activity. The data set is classed as cell-based. Particulars: HNP-1 12 μM incubated 1 hour at 37° C. with 0-12 μM ADP-ribosyl-HNP-1; FIG. 3B. As for the experimental part: as §2
HNP-1 (12 μM) was incubated with various concentrations of ADP-ribosyl-HNP-1 (0-12 μM) for 1 hour at 37° C. before the initiation of the chromium release assay. The chromium release assay was performed as described in Example 5. HNP-1 and ADP-ribosyl-HNP-1 (0-12 μM) were included as controls.

On to “ADP-ribosylated HNP-1: HNP-1 (SEQ ID NO:2) mono-ADP-ribosylated by ART-1 with NAD, at arginine 14”, for which the “antibacterial activity (diameter of zone cleared of E. coli growth)” value in data set [1] is listed as “reduced antibacterial activity”. Also, the “cytotoxicity (lysis of 51Cr-labeled A549 cells)” value in the data set with A549 cells [2] is on record as “less cytotoxic than unmodified HNP-1”. Besides, in the data set on E. coli, the “effect on antimicrobial/cytotoxic activity of HNP-1, radial diffusion assay” value was “blocked the cytotoxic activity of HNP-1 in a concentration-dependent manner”. The “ability to recruit T cells (chemotaxis)” value with CD3+ T-cells is “retained the ability to recruit T cells at a level that was comparable to unmodified HNP”. For the same substance, the “IL-8 release into the medium versus unmodified peptide” value is “significantly higher” in the data set with A549 cells [3] (0.75 μM peptide, P=0.01); “significantly higher” in the data set with A549 cells [3] (1.5 μM peptide, P=0.01); “no differences” with A549 cells [3] (3 μM peptide). In addition, in the data set on A549 cells [4], the “effect on cytotoxic activity of HNP-1, chromium release assay” value is reported as “blocked the cytotoxic activity of HNP-1 in a concentration-dependent manner”.
